Source: patent US6617335B1, “Preparation and drug composition of bis-benzyl-isoquinoline class alkaloids” (Kanghong USA, Inc., priority 2002, dated 2003)

Columns and labels:
P388/adr [1] = test: In vitro reversal of multi drug resistance to vinblastine in P388/adr cells; type: cell-based; conditions: vinblastine against multi drug resistance cell line P388/adr
Protocol: The IC50 value was in the range of 2-3 μg/mL, the reversal index against P388 was around 20, and most of the compounds completely reversed multi drug resistance of vinblastine-treated tumor cells.

P388/adr [2] = test: In vivo study of inhibition of MDR activity, nude mice xenografted with P388/adr
Protocol: Method: Using defined characteristics of […] P388/adr cell line in a nude mice model to determine the inhibition of MDR activity. Quantitative subcutaneous injection of P388 cell into the armpit of nude mice was followed for a certain period of time. […] The formulations and a cepharanthine control were administered by intraperitoneal injection for 2 to 4 times a day, and the animals consecutively observed for 10 days. Life span and survival rates were calculated.

P388/adr cell line = test: Isotopic determination of vincristine concentration in the P388/adr cell line; type: cell-based; conditions: P388/adr MDR cells; for inhibition of MDR activity / intracellular isotope marker concentration compared with verapamil: three levels; for intracellular vinca alkaloid concentration, combined therapy vs other known MDR inhibitors (tetrandrine, fangchinoline, cepharanthine): low, middle and high dosages
Protocol: Method: By using an isotope marker, differences were observed between intracellular vincristine concentrations during combined therapy and single therapy. […] The dosages were arranged in low, middle and high groups in parallel studies, results were calculated in dpm of vincristine concentration in the cell.

in vivo = test: in vivo
Protocol: Method: LDs50 values for the compounds of formula (I) were calculated according to the method of Gaddum and Gu Han Yi.

[3] = tested on: Salmonella typhimurium TA97, TA98, TA100 and TA102; test: Mutagenicity test (Ames method); conditions: plate method, dosages 100, 20, 4, 0.8, 0.16
Protocol: Determinations were carried out the using Salmonella typhimurium […] mutants types TA97, TA98, TA100 and TA102 to detect the mutagenicity of said compound. Mutagenicity was determined according to the method of Ames. (Ames, B., et al. (1973). An improved bacterial test system for the detection and classification of mutagens and carcinogens. Proc. Natl. Acad. Sci. USA 70: 782-786). In the plate method with dosages of 100, 20, 4, 0.8, and 0.16, compared with the blank control, (self made compound S9), counting the number of reversed mutative colony changed, to decide the mutagenicity of the test compound.

cepharanthine
IC50 value (P388/adr [1]): 11.7 µg/mL

CCCOc1c(OC)cc2c3c1Oc1cc4c(cc1OC)CCN(C)[C@H]4Cc1ccc(cc1)Oc1cc(ccc1OC)C[C@@H]3N(C)CC2
melting point: 175 to 176 °C

COc1cc(Br)c2cc1Oc1ccc(cc1)C[C@H]1c3cc(c(OC)cc3CCN1C)Oc1c(OC)c(OC)c(Br)c3c1[C@H](C2)N(C)CC3 [Example 9, 5,14-dibromo-tetrandrine]
melting point: 184 to 185 °C

COc1ccc2cc1Oc1ccc(cc1)C[C@H]1c3cc(c(OC)cc3CCN1C)Oc1c(OC)c(OC)c(Br)c3c1[C@H](C2)N(C)CC3 [Example 8, 5-bromo-tetrandrine]
inhibition of MDR activity of vinblastine against P388/adr compared with cepharanthine (VIII) (P388/adr [2]): significantly stronger | increase of survival rates by the combined therapy (P388/adr [2]; combined therapy with vinca alkaloid vs monotherapy, intraperitoneal, observed 10 days): 37.7% | inhibition of MDR activity / intracellular isotope marker concentration compared with verapamil (P388/adr cell line): corresponding to verapamil | inhibition of MDR activity / intracellular isotope marker concentration compared with verapamil (P388/adr cell line; listed as Example No. 8): comparable to the available agent verapamil | intracellular vinca alkaloid concentration, combined therapy vs monotherapy (P388/adr cell line; isotope marker): significantly higher | intracellular vinca alkaloid concentration, combined therapy vs other known MDR inhibitors (tetrandrine, fangchinoline, cepharanthine) (P388/adr cell line; isotope marker): significantly higher | intracellular vinca alkaloid concentration, combined therapy vs other known MDR inhibitors (tetrandrine, fangchinoline, cepharanthine) (P388/adr cell line; isotope marker, listed as Example No. 8): higher | LD50 at 1 month (in vivo; in vivo, route not stated at this place, read-out: acute toxicity LD50): > 125 mg/kg | LDs50, intraperitoneal administration (in vivo; intraperitoneal): > 368 mg/kg bodyweight | LDs50, intravenous administration (in vivo; intravenous): > 125 mg/kg bodyweight | mutagenicity (Ames) [3]: void of mutagenicity
